Converted amounts (≈) assume the structure as drawn. Where two headings read alike, the source gives them in different places.
What was measured:
Staph. aureus [1] = details: bacterium 1 of Table II (Staph. aureus); from EP 0165375; cited from earlier work
E. coli [2] = details: bacterium 2 of Table II (E. coli); from EP 0165375; cited from earlier work
Ps. aeruginosa [3] = details: bacterium 4 of Table II (Ps. aeruginosa); from EP 0165375; cited from earlier work
[4] = Gerster c.s., 25th Intersc. Conf. Antimicrob. Agents and Chemotherapy, 1985; cited from earlier work
Ps. aeruginosa [5] = assay: Antibacterial activity, MIC and MBC (Table II); type: cell-based; details: assay in duplicate (two lines); for MBC: Minimum Bactericidal Concentration; for MIC: Minimum Inhibitory Concentration
Text: (§1) GBR 23790 is (S)-9-fluoro-3-methyl-10-(4-methyl-1-piperazinyl)-2,3-dihydro-7-oxo-7H-pyrido[1,2,3-de][1,4]-benzothiazine-6-carboxylic acid, which is S-ofloxacin, but with the ring oxygen atom substituted by a ring sulfur atom. • MIC = Minimum Inhibitory Concentration (mg/I) • MBC = Minimum Bactericidal Concentration (mg/I) Each assay has been carried out in duplicate. GBR 23790 in racemic form is known from EP 0165375 (compound (p) in Table I). Its MIC-values, are for bacteria 1, 2 and 4 in the above Table II, resp. 0.78, 0.78 and 50.

Strep. faecalis = assay: Antibacterial activity, MIC and MBC (Table II); type: cell-based; details: Enterococcus faecalis, assay in duplicate (two lines); for MBC: Minimum Bactericidal Concentration; for MIC: Minimum Inhibitory Concentration
Text: as §1

E. coli [6] = assay: Antibacterial activity, MIC and MBC (Table II); type: cell-based; details: Escherichia coli, assay in duplicate (two lines); for MBC: Minimum Bactericidal Concentration; for MIC: Minimum Inhibitory Concentration
Text: as §1

Staph. aureus [7] = assay: Antibacterial activity, MIC and MBC (Table II); type: cell-based; details: Minimum Inhibitory Concentration, assay in duplicate (two lines)
Text: as §1

[8] = Pseudomonas aeruginosa, read-out: MBC

For `CC1CSc2c(N3CCN(C)CC3)c(F)cc3c(=O)c(C(=O)O)cn1c23` (racemic) [GBR 23790 in racemic form], the MIC-values (Staph. aureus [1]) is listed as 0.78 mg/I, the MIC-values (E. coli [2]) is listed as 0.78 mg/I and the MIC-values (Ps. aeruginosa [3]) is listed as 50 mg/I.
For `Cc1c(F)cc2c(=O)c(C(=O)O)cn3c2c1CCC3C` (single isomer, unassigned) [(R)-(+)-isomer, 6,7-dihydro-5,8-dimethyl-9-fluoro-1-oxo-1 H,5H-benzo[ij]quinolizine-2-carboxylic acid], the “antibacterial activity in vitro” value [4] is listed as “much less active”.
For `Cc1c(F)cc2c(=O)c(C(=O)O)cn3c2c1CC[C@@H]3C` [(S)-(-)-isomer of 6,7-dihydro-5,8-dimethyl-9-fluoro-1-oxo-1 ] [6,7-dihydro-5,8-dimethyl-9-fluoro-1-oxo-1 H,5H-benzo[ij]quinolizine-2-carboxylic acid], the “antibacterial activity in vitro” value [4] is given as “potent antibacterial activity”.
`C[C@H]1COc2c(N3CCN(C)CC3)c(F)cc3c(=O)c(C(=O)O)cn1c23` [(S)-ofloxacin, (S)-(-)-9-Fluoro-2,3-dihydro-3-methyl-10-(4-methyl-1-piperazinyl)-7-oxo-7H-pyrido[1,2,3-de][i ,4]benzoxazine-6-carboxylic acid] gave an MBC (Ps. aeruginosa [5]) of 1.25 mg/I, an MBC (Ps. aeruginosa [5]; [8]) of 0.63 µg/mL (≈ 1.74 µM) and an MIC (Ps. aeruginosa [5]; Pseudomonas aeruginosa) of 0.63 µg/mL (≈ 1.74 µM). The MBC (Strep. faecalis) was 1.25 µg/mL (≈ 3.46 µM), the MIC (Strep. faecalis) was 1.25 µg/mL (≈ 3.46 µM) and the MBC (E. coli [6]) was 0.04 µg/mL (≈ 0.111 µM). For the same compound, the MIC (E. coli [6]) was 0.04 µg/mL (≈ 0.111 µM).
With `C[C@H]1CSc2c(N3CCN(C)CC3)c(F)cc3c(=O)c(C(=O)O)cn1c23` [GBR 23790, (S)-9-fluoro-3-methyl-10-(4-methyl-1-piperazinyl)-2,3-dihydro-7-oxo-7H-pyrido[1,2,3-de][1,4]-benzothiazine-6-carboxylic acid] the MIC (Staph. aureus [7]) was 0.16 mg/I, the MIC (Staph. aureus [7]; Staphylococcus aureus, read-out: MIC) was 0.08 µg/mL (≈ 0.212 µM) and the MBC (Ps. aeruginosa [5]; [8]) was 2.5 µg/mL (≈ 6.62 µM). The MIC (Ps. aeruginosa [5]; Pseudomonas aeruginosa) was 1.25 µg/mL (≈ 3.31 µM), the MBC (Strep. faecalis) was 2.5 µg/mL (≈ 6.62 µM) and the MIC (Strep. faecalis) was 1.25 µg/mL (≈ 3.31 µM). It also gave an MBC (E. coli [6]) of 0.08 µg/mL (≈ 0.212 µM) and an MIC (E. coli [6]) of 0.08 µg/mL (≈ 0.212 µM).

Source: patent EP0368410A2, “Optically active benzoxazines and bezothiazines and a process for their stereospecific preparation” (GIST-BROCADES N.V., priority 1988, dated 1990)
